Test results from patent US20240240226A1, “FLUOROGENIC ASSAY FOR RAPID SCREENING OF BACTERIAL BETA-LACTAMASE ACTIVITY” (The Board of Trustees of the Leland Stanford Junior …, priority 2021, published 2024).
Values joined by “and” are separate entries in the source; they are usually repeats but may differ in a detail not shown here. Equal entries are not always repeated.

Experiments:
TEM-1 Bla = target: T1, TEM-1 Bla (Escherichia coli, UniProt P62593); assay: CDA fluorescence turn-on with recombinant TEM-1 Bla, esterase and H2O2; type: biochemical
T1 construct: TEV(Cys) (TEV site / Cys element as named in the plasmid); made in house; host or cells: E. coli (BL21 or TOP10)
T1 sequence (P62593 24-286 limits assumed): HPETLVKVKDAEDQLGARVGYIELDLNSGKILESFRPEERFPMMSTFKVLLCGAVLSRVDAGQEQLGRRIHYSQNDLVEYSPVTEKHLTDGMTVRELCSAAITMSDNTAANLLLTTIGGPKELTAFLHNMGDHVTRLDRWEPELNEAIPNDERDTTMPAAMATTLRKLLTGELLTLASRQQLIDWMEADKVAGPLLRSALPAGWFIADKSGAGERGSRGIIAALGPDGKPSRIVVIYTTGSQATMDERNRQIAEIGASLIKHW

K. pneumoniae/KPC = assay: CDA/H2O2 detection of K. pneumoniae expressing KPC carbapenemase; type: cell-based; settings: clinical isolate, H2O2 1 mM, within 2-3 hours
Method: FIG. 3 illustrates the characterization of CDA with HRP, H2O2, E. coli expressing TEM-1 Bla (E. coli/TEM-1) and IMP-1 carbapenemase (E. coli/IMP-1), and K. pneumoniae expressing KPC carbapenemase (K. pneumoniae/KPC). a) Fluorescence enhancement of CDA incubated with different concentrations of E. coli expressing TEM-1 Bla. b) Fluorescence enhancement of CDA; HRP (1 unit/mL), H2O2 (1 μM), and either viable E. coli expressing TEM-1 Bla or bacterial lysate extracted from equal c.f.u. per milliliter. c) Fluorescence enhancement of CDA incubated with different concentrations of E. coli expressing TEM-1 Bla (H2O2, 1 mM). d) Fluorescent intensity of E. coli and E. coli/TEM-1 preincubated with CDA for 20 hours upon addition of H2O2 (500 μM) for 5 min. Error bars represent ±SD, n=3. * p<0.0332; **p<0.0021, ****p<0.0001, ns: not significant. e) Fluorescence enhancement of CDA incubated with different concentrations of E. coli expressing IMP-1 carbapenemase in the presence of H2O2 (1 mM). f) Fluorescence enhancement of CDA incubated with different concentrations of K. pneumoniae expressing KPC carbapenemase (H2O2, 1 mM). […] Data were collected on a Tecan Safire microplate reader with excitation at 570 nm and emission at 600 nm. […]
CDA was also tested for detecting K. pneumoniae. […] Similar to E. coli/KPC-3, 10^6 c.f.u./mL KPC-positive K. pneumoniae could be detected within 2-3 hours. […]

[1] = tested on: β-lactamase producing bacteria; assay: Two-step filtration CDA/H2O2 assay of bacteria in synthetic urine; type: cell-based, E. coli, K. pneumoniae, E. cloacae, S. marcescens; settings: for bacteria concentration in urine detectable: two-step filtration, 250-fold enrichment, H2O2 1 mM
Method: (§1) FIG. 4 illustrates the detection of lactam-resistant bacteria in urine samples. a) Illustration of the workflow in bacteria isolation and concentration from a urine sample for detection. The sample is first filtrated by a 5-μm filter to trap cells and large debris followed by a 0.22-μm filter to trap bacteria. The 0.22-μm filter is washed once before PBS/H2O2 (1 mM) is directed through the 0.22-μm filter in the opposite direction with a new syringe to recover the concentrated bacteria for detection in a plate reader. b) Longitudinal monitoring of fluorescence enhancement with CDA and concentrated E. coli, K. pneumoniae, K. pneumoniae/KPC, E. coli/TEM-1, E. coli/IMP-1, E. coli/KPC-3, E. cloacae/IMP, S. marcescens/SME, and E. coli/OXA-48 in the presence of H2O2 (1 mM). Star* indicate clinical isolates. The study was duplicated at room temperature with PBS as the buffer. The signal of CDA alone in PBS containing H2O2 (1 mM) was subtracted and the absolute values were plotted. The working concentration of CDA was 10 μM. Data were collected on a Tecan Safire microplate reader with excitation at 570 nm and emission at 600 nm. A.U. indicates arbitrary units.
To develop an easy-to-use, point-of-care assay for screening cephalosporin and carbapenem resistance, a simple two-step filtration method was employed (FIG. 26) to prepare and concentrate pathogenic bacteria, similar to a procedure applied for improving culture-based AST previously (Avesar et al., Procs. Nat. Acad. Sci. U.S.A, 2017, 114, E5787-E5795). […] The 5-micron filter would trap particles including cells and large debris, and bacteria would be collected by the 0.22-micron filter and washed by PBS. A reverse elution with PBS containing 1 mM H2O2 allowed immediate high-throughput analysis by a plate reader in a 96-well plate precoated with CDA. […] 50 mL of synthetic urine spiked with bacteria could be concentrated to approximately 200 μL ready-to-use suspension within a few minutes; polypropylene filters recover bacteria more efficiently (>90%) than commonly used nylon filters (FIG. 27). […]

E. coli = assay: Two-step filtration CDA/H2O2 urine assay, negative control E. coli; type: cell-based; settings: E. coli without β-lactamase, concentrated from urine
Method: as §1, with “units. […]” for “units.”

K. pneumoniae = assay: Two-step filtration CDA/H2O2 urine assay, negative control K. pneumoniae; type: cell-based; settings: K. pneumoniae without β-lactamase, concentrated from urine
Method: as §1, with “units. […]” for “units.”

esterase = assay: Response of CDA to H2O2 with esterases alone; type: biochemical

CC(=O)Oc1ccc2c(c1)Oc1cc(OC(C)=O)ccc1N2C(=O)OCc1ccc(SCC2=C(C(=O)O)N3C(=O)[C@@H](NC(=O)Cc4ccccc4)[C@H]3SC2)cc1 [CDA, 3-(((4-(((3,7-diacetoxy-10H-phenoxazine-10-carbonyl)oxy)methyl)phenyl)thio)methyl)-8-oxo-7-(2-phenylacetamido)-5-thia-1-azabicyclo[4.2.0]oct-2-ene-2-carboxylic acid]
minimum CDA concentration required for reporting β-lactamase/esterase activity (TEM-1 Bla; esterase 1 μg/mL, TEM-1 Bla 100 nM, H2O2 1 mM): 100 nM
fluorescence with TEM-1 Bla and esterase without H2O2 (TEM-1 Bla; no H2O2, oxidation by dissolved oxygen): displayed fluorescence turn-on
bacteria concentration detected (K. pneumoniae/KPC): 10^6 c.f.u./mL
fluorescent signal over time ([1]; all β-lactamase producing bacteria, after 250-fold enrichment): time dependent increase of fluorescent signal
bacteria concentration in urine detectable ([1]; within 1 hour): 10^5 c.f.u./mL
bacteria concentration in urine detectable ([1]; within 2 hours, room temperature): 10^3 c.f.u./mL and 10^4 c.f.u./mL
fluorescent signal of negative control (E. coli): slightly increased signal
fluorescent signal of negative control (K. pneumoniae): almost undetectable
change of the response of CDA to H2O2 (esterase): barely changed
